Data as given in ChEMBL document CHEMBL1201862, “PubChem BioAssay data set” (2004).
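In this assay, cells in 96-well plates receive the compound at five concentrations for 48 hours. Endpoints are linearly interpolated between the surrounding concentrations. GI50: concentration for 50% inhibition of growth.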 Activity calls are given as the source filed them. Cut-off read from the data, not from the text of the source: active = GI50 up to about 1.1 µM and inactive = higher.

Key:
Assay in all cases: NCI anticancer screen, dose series, 48 h
SK-MEL-5 = tested on: SK-MEL-5
Malme-3M = tested on: Malme-3M
SK-MEL-2 = tested on: SK-MEL-2
NCI/ADR-RES = tested on: NCI/ADR-RES
SW-620 = tested on: SW-620
RXF 393 = tested on: RXF 393
HT-29 = tested on: HT-29
COLO 205 = tested on: COLO 205
Hs-578T = tested on: Hs-578T
SK-MEL-28 = tested on: SK-MEL-28
BT-549 = tested on: BT-549
KM12 = tested on: KM12
HOP-92 = tested on: HOP-92
UACC-257 = tested on: UACC-257
U-251 = tested on: U-251
MCF7 = tested on: MCF7
ACHN = tested on: ACHN
DU-145 = tested on: DU-145
NCI-H460 = tested on: NCI-H460
SK-OV-3 = tested on: SK-OV-3
A498 = tested on: A498
T47D = tested on: T47D
CCRF-CEM = tested on: CCRF-CEM
SR = tested on: SR
MDA-MB-231 = tested on: MDA-MB-231
786-0 = tested on: 786-0
OVCAR-8 = tested on: OVCAR-8
HOP-62 = tested on: HOP-62
IGROV-1 = tested on: IGROV-1
PC-3 = tested on: PC-3
HCC 2998 = tested on: HCC 2998
MOLT-4 = tested on: MOLT-4
NCI-H23 = tested on: NCI-H23
UACC-62 = tested on: UACC-62
SF-268 = tested on: SF-268
TK-10 = tested on: TK-10
K562 = tested on: K562
SF-295 = tested on: SF-295
A549 = tested on: A549
M14 = tested on: M14
OVCAR-4 = tested on: OVCAR-4
NCI-H522 = tested on: NCI-H522
UO-31 = tested on: UO-31
CAKI-1 = tested on: CAKI-1
NCI-H226 = tested on: NCI-H226
MDA-MB-435 = tested on: MDA-MB-435
OVCAR-3 = tested on: OVCAR-3
HCT-116 = tested on: HCT-116
SN12C = tested on: SN12C
OVCAR-5 = tested on: OVCAR-5
MDA-N = tested on: MDA-N
RPMI-8226 = tested on: RPMI-8226
SNB-75 = tested on: SNB-75
SF-539 = tested on: SF-539
HCT-15 = tested on: HCT-15
LOX IMVI = tested on: LOX IMVI
HL-60 = tested on: HL-60
SNB-19 = tested on: SNB-19

O=C1CC(=O)NC(NN2C(=O)CSC2C(=O)c2ccco2)=N1 (stereo unspecified)
GI50 (SK-MEL-5): > 100 µM (inactive)
GI50 (Malme-3M): > 100 µM (inactive)
GI50 (SK-MEL-2): > 100 µM (inactive)
GI50 (NCI/ADR-RES): > 100 µM (inactive)
GI50 (SW-620): > 100 µM (inactive)
GI50 (RXF 393): > 100 µM (inactive)
GI50 (HT-29): > 100 µM (inactive)
GI50 (COLO 205): > 100 µM (inactive)
GI50 (Hs-578T): > 100 µM (inactive)
GI50 (SK-MEL-28): > 100 µM (inactive)
GI50 (BT-549): > 100 µM (inactive)
GI50 (KM12): 3.05 µM (inactive)
GI50 (HOP-92): > 100 µM (inactive)
GI50 (UACC-257): > 100 µM (inactive)
GI50 (U-251): > 100 µM (inactive)
GI50 (MCF7): > 100 µM (inactive)
GI50 (ACHN): > 100 µM (inactive)
GI50 (DU-145): > 100 µM (inactive)
GI50 (NCI-H460): > 100 µM (inactive)
GI50 (SK-OV-3): > 100 µM (inactive)
GI50 (A498): > 100 µM (inactive)
GI50 (T47D): > 100 µM (inactive)
GI50 (CCRF-CEM): > 100 µM (inactive)
GI50 (SR): > 100 µM (inactive)
GI50 (MDA-MB-231): > 100 µM (inactive)
GI50 (786-0): > 100 µM (inactive)
GI50 (OVCAR-8): > 100 µM (inactive)
GI50 (HOP-62): > 100 µM (inactive)
GI50 (IGROV-1): > 100 µM (inactive)
GI50 (PC-3): > 100 µM (inactive)
GI50 (HCC 2998): > 100 µM (inactive)
GI50 (MOLT-4): > 100 µM (inactive)
GI50 (NCI-H23): > 100 µM (inactive)
GI50 (UACC-62): > 100 µM (inactive)
GI50 (SF-268): > 100 µM (inactive)
GI50 (TK-10): > 100 µM (inactive)
GI50 (K562): > 100 µM (inactive)
GI50 (SF-295): 78.7 µM (inactive)
GI50 (A549): > 100 µM (inactive)
GI50 (M14): > 100 µM (inactive)
GI50 (OVCAR-4): > 100 µM (inactive)
GI50 (NCI-H522): > 100 µM (inactive)
GI50 (UO-31): > 100 µM (inactive)
GI50 (CAKI-1): > 100 µM (inactive)
GI50 (NCI-H226): > 100 µM (inactive)
GI50 (MDA-MB-435): > 100 µM (inactive)
GI50 (OVCAR-3): > 100 µM (inactive)
GI50 (HCT-116): > 100 µM (inactive)
GI50 (SN12C): > 100 µM (inactive)
GI50 (OVCAR-5): > 100 µM (inactive)
GI50 (MDA-N): > 100 µM (inactive)
GI50 (RPMI-8226): > 100 µM (inactive)
GI50 (SNB-75): 12.2 µM (inactive)
GI50 (SF-539): > 100 µM (inactive)
GI50 (HCT-15): > 100 µM

CCN(CC)c1ccc2cc(-c3nc4ccccc4n3C)c(=O)oc2c1
GI50 (SK-MEL-5): 0.0948 µM (active)
GI50 (SK-MEL-2): 0.255 µM (active)
GI50 (NCI/ADR-RES): 0.135 µM (active)
GI50 (SW-620): 0.163 µM (active)
GI50 (RXF 393): 1.74 µM (inactive)
GI50 (HT-29): 0.259 µM (active)
GI50 (COLO 205): 0.315 µM (active)
GI50 (Hs-578T): 0.269 µM (active)
GI50 (BT-549): 0.274 µM (active)
GI50 (KM12): 0.571 µM (active)
GI50 (HOP-92): 0.873 µM (active)
GI50 (UACC-257): 1.17 µM (inactive)
GI50 (U-251): 0.352 µM (active)
GI50 (MCF7): 0.667 µM (active)
GI50 (ACHN): 2.79 µM (inactive)
GI50 (DU-145): 0.306 µM (active)
GI50 (NCI-H460): 0.286 µM (active)
GI50 (SK-OV-3): 0.33 µM (active)
GI50 (A498): 0.0163 µM (active)
GI50 (T47D): > 100 µM (inactive)
GI50 (CCRF-CEM): 0.154 µM (active)
GI50 (SR): 0.0986 µM (active)
GI50 (MDA-MB-231): 0.889 µM (active)
GI50 (786-0): 0.381 µM (active)
GI50 (OVCAR-8): 0.497 µM (active)
GI50 (HOP-62): 0.411 µM (active)
GI50 (IGROV-1): 0.485 µM (active)
GI50 (PC-3): 0.2 µM (active)
GI50 (HCC 2998): 0.685 µM (active)
GI50 (MOLT-4): 0.533 µM (active)
GI50 (NCI-H23): 0.334 µM (active)
GI50 (UACC-62): 0.231 µM (active)
GI50 (SF-268): 2.05 µM (inactive)
GI50 (TK-10): > 100 µM (inactive)
GI50 (K562): 0.102 µM (active)
GI50 (SF-295): 0.285 µM (active)
GI50 (A549): 0.578 µM (active)
GI50 (LOX IMVI): 0.495 µM (active)
GI50 (M14): 0.355 µM (active)
GI50 (OVCAR-4): > 100 µM (inactive)
GI50 (HL-60): 0.206 µM (active)
GI50 (NCI-H522): 0.205 µM (active)
GI50 (UO-31): 3.52 µM (inactive)
GI50 (CAKI-1): 0.288 µM (active)
GI50 (NCI-H226): 0.302 µM (active)
GI50 (MDA-MB-435): 0.0369 µM (active)
GI50 (OVCAR-3): 0.24 µM (active)
GI50 (HCT-116): 0.204 µM (active)
GI50 (SNB-19): 0.408 µM (active)
GI50 (SN12C): 0.713 µM (active)
GI50 (OVCAR-5): 1.15 µM (inactive)
GI50 (MDA-N): 0.0259 µM (active)
GI50 (RPMI-8226): 0.33 µM (active)
GI50 (SNB-75): 0.0177 µM (active)
GI50 (SF-539): 0.222 µM (active)
GI50 (HCT-15): 0.17 µM
